In assay [1] the target is T1, Beta-secretase 1 (Homo sapiens, UniProt P56817). Kind of assay: Mixed type inhibition of recombinant human BACE1 using Rh-EVNLDAEFK-Quencher as substrate after 60 mins by Dixon plot analysis.
Assay [2] deals with Cholinesterase (Equus caballus, UniProt P81908). Kind of assay: Inhibition of equine serum BChE using butyrylthiocholine chloride as substrate incubated for 15 mins by spectrophotometric analysis.
For assay [3], the target named is Acetylcholinesterase (Electrophorus electricus, UniProt O42275). Description: Inhibition of electric eel AChE using acetylthiocholine iodide as substrate incubated for 15 mins by spectrophotometric analysis.
Chain of Acetylcholinesterase (O42275 whole entry): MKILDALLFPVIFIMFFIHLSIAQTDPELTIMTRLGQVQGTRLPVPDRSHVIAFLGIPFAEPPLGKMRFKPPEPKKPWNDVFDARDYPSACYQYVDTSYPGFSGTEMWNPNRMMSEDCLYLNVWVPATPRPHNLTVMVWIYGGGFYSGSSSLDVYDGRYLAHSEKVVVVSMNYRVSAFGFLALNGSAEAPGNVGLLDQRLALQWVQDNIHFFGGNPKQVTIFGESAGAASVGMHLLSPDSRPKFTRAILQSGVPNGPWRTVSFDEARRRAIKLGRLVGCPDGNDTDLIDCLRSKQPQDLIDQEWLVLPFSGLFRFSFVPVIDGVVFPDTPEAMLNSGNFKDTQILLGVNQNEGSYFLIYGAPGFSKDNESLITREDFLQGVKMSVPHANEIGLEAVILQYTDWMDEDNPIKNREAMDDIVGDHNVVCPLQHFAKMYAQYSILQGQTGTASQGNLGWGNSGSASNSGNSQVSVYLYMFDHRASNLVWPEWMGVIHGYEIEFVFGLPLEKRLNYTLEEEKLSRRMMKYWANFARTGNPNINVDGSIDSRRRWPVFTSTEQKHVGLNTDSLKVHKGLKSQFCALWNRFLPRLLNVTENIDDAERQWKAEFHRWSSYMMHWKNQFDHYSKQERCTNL
Assay [4] deals with T1, Beta-secretase 1. Description: Noncompetitive inhibition of recombinant human BACE1 using Rh-EVNLDAEFK-Quencher as substrate after 60 mins by Lineweaver-Burk plot analysis.
Assay [5] concerns the target T1, Beta-secretase 1. Kind of assay: Inhibition of recombinant human BACE1 using Rh-EVNLDAEFK-Quencher as substrate after 60 mins by FRET assay.
The target of assay [6] is T1, Beta-secretase 1. Kind of assay: Noncompetitive inhibition of recombinant human BACE1 using Rh-EVNLDAEFK-Quencher as substrate after 60 mins by Dixon plot analysis.

Calls of active or inactive are those of the source. The rule behind the calls is not given here.

For orientation: Ki means the dissociation constant of the complex between target and ligand, obtained from inhibition or displacement. A word on the IC50: it is the concentration that inhibits the measured activity by half.

T1 sequence (P56817 whole entry): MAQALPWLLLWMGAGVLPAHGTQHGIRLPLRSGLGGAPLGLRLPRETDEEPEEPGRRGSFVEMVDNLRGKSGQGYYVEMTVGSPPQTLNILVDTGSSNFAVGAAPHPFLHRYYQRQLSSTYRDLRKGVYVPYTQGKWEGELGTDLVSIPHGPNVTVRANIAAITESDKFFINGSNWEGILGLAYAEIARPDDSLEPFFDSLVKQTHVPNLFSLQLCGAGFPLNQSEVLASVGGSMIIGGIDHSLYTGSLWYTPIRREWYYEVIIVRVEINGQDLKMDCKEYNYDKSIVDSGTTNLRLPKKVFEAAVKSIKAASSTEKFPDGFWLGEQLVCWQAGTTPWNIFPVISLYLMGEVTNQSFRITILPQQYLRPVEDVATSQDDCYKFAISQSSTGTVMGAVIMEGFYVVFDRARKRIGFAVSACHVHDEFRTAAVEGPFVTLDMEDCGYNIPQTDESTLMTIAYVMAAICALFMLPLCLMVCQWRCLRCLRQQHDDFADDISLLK
Chain of Cholinesterase (P81908 whole entry): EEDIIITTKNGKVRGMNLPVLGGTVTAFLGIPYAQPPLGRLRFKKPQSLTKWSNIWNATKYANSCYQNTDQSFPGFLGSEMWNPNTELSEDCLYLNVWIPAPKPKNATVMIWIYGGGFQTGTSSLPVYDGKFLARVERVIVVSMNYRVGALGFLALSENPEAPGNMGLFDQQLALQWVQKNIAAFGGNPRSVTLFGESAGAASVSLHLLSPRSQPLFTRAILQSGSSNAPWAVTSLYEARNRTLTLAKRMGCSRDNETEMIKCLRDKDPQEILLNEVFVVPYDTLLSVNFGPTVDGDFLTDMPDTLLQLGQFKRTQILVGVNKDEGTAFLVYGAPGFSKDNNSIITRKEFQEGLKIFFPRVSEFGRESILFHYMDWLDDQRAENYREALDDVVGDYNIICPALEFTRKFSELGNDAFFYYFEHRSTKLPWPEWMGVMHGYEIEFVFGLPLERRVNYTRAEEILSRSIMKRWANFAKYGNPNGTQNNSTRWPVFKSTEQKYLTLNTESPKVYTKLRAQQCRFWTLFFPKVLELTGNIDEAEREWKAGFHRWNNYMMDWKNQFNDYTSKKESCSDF

Turning to `CC(C)=CCC/C(=C/CC/C(C)=C/CC/C(C)=C/CC1=CC(=O)C=C(C)C1=O)C(=O)O`, in assay [1], the Ki was 4 µM. Besides, the figures for the IC50 in assay [2] and in assay [3] were 10.5 µM and 69.3 µM, respectively.

For `CC(C)=CCC/C(=C/CC/C(C)=C/CCC1(C)C=Cc2cc(O)cc(C)c2O1)C(=O)O` (stereo not drawn), the inhibition result in assay [4] was “Active”. For the same compound, the IC50 in assay [5] was 7 µM; in assay [2], 9.4 µM; in assay [3], 97.3 µM. The Ki in assay [6] came out at 2.9 µM.

With `COc1ccc2cc3[n+](cc2c1OC)CCc1cc2c(cc1-3)OCO2` [BERBERINE], the 50% inhibitory concentration (IC50) in assay [3] turned out to be 1.6 µM.

For the compound `CC(C)=CCC/C(=C/CC/C(C)=C/CC/C(C)=C/Cc1cc(O)cc(C)c1O)C(=O)O` [SARGAHYDROQUINOIC ACID], in assay [1], the inhibition constant Ki stood at 1.6 µM. Besides, the IC50 in assay [5] was 4.4 µM; in assay [2], 15.2 µM; in assay [3], 124 µM.

(Values after ChEMBL document CHEMBL4052658, “BACE1 inhibitory activity and molecular docking analysis of meroterpenoids from Sargassum serratifolium” (Bioorg Med Chem, 2017).)
